Here are results for three compounds from patent EP0062019A1, “New phenyl-perhydroazepines” (priority 1981, dated 1982).

The test system of one experiment is rabbit right atria. The experiment in a line: Chronotropic effect (heart frequency) in isolated spontaneously beating right atria. Particulars: Oryctolagus cuniculus; for EC50: iv, isolated right atria, rabbits pretreated with reserpine (5 mg/kg i.v.), Krebs-buffer pH 7.4, 32°C, read-out: HR EC50; for Emax: maximal effect compared with maximal effect of isoprenaline (intrinsic activity), rabbits pretreated with reserpine, read-out: HR ISA. It counts as cell-based. How it is done: (§1) Pharmacological studies on cardiac effects on heart frequency and contractility in isolated right atria and papillary muscle from rabbit.
(§2) Rabbits with an average weight of 2.5 kg, pretreated with reserpine (5 mg/kg i.v.) about 16 hours before the experiment were used. The rabbits were killed by a blow and the hearts were rapidly removed. The right atria and a papillary muscle from the right ventricle were isolated and set up to contract isometrically in an organ bath. The bath contained 50 ml Krebs-buffer (pH 7.4) and the temperature was kept at 32°C.
(§3) The contractions were measured by means of a force displacement transducer (Grass Model FT03) coupled to a.Grass Model 7 Polygraph with a preampliphier (Grass Model 7PIF). ,
(§4) The spontaneously beating right atria was stretched to a resting tension high enough to measure the contractions and to trigger a tachograph for registration of the frequency. The papillary muscle was stretched to the length at which maximal tension was developed and was driven at a frequency of 1HZ by a current 20 per cent above threshold and with a duration of 5 msec.
(§5) After 60 min. equilibration, dose response curves to cumulative concentrations of isoprenaline were constructed for chronotropic effect, i.e. increase in frequency (atria) and positive inotropic effect, i.e. increase in contractility (papillary muscle). After wash-out similar curves were constructed for the compounds employed according to the invention. The positive inotropic agent dopamine was included for comparison.
(§6) In order to establish the maximal chronotropic and inotropic responses of the preparations, isoprenaline was added immediately after the maximal concentrations of the compounds. The maximal effects of the compounds compared with the maximal effect of isoprenaline are expressed as intrinsic activity (ISA).

The subject of experiment [1] is rabbit right ventricle papillary muscle. Briefly: Positive inotropic effect (contractility) in isolated, electrically driven papillary muscle. It counts as cell-based. The conditions noted are these: for EC50 / Emax: Oryctolagus cuniculus; for EC50: iv, papillary muscle driven at 1HZ, rabbits pretreated with reserpine (5 mg/kg i.v.), Krebs-buffer pH 7.4, 32°C, read-out: Tmax EC50; for Emax: maximal effect compared with maximal effect of isoprenaline (intrinsic activity), rabbits pretreated with reserpine, read-out: Tmax ISA. The protocol: as §1, §2, §3, §4, §5, §6

In the case of `NCCc1ccc(O)c(O)c1` [Dopamine], in the experiment on rabbit right atria, the EC50 is 38 µM and the Emax was 97%. Moreover, in experiment [1], the EC50 turned out to be 36 µM and the Emax amounted to 77%.

In the case of `CCCN1CCCCC(c2cccc(O)c2)C1` (stereo not shown) [Example 1, 3-(3-hydroxyphenyl)N-n-propylperhydroazepine], the figures for the EC50 (in the experiment with rabbit right atria; in experiment [1]) were 0.35 µM and 11 µM, respectively. In addition, the Emax with rabbit right atria came out at 31%; in experiment [1], 37%. Also, the “EC50 for contractility relative to the EC50 for dopamine” value in experiment [1] (fraction of the dopamine EC50) is recorded as “about one third”.

For `CC(C)NCC(O)c1ccc(O)c(O)c1` (stereo not shown) [Isoprenaline], the EC50 with rabbit right atria turned out to be 0.003 µM; in experiment [1], 0.01 µM. Moreover, the Emax (in the experiment on rabbit right atria; in experiment [1]) was 100% throughout.

As a reminder, the EC50 is the concentration needed to bring the measured effect to its halfway point.
